Test results reported in PubChem BioAssay (NCI).
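GI50 = concentration required for 50% inhibition of growth. Definition used: TGI = concentration required for complete inhibition of growth.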

What was measured:
Experiment in all cases: NCI tumour cell line growth inhibition, 384-well format
SK-MEL-5 melanoma = tested on: SK-MEL-5 melanoma
CAKI-1 renal = tested on: CAKI-1 renal
T-47D breast = tested on: T-47D breast
PC-3 prostate = tested on: PC-3 prostate
SNB-75 CNS = tested on: SNB-75 CNS
MCF7 breast = tested on: MCF7 breast
RXF 393 renal = tested on: RXF 393 renal
HCT-15 colon = tested on: HCT-15 colon
SF-539 CNS = tested on: SF-539 CNS
UACC-62 melanoma = tested on: UACC-62 melanoma
NCI-H23 lung = tested on: NCI-H23 lung
HCC-2998 colon = tested on: HCC-2998 colon
OVCAR-3 ovarian = tested on: OVCAR-3 ovarian
HOP-92 NSCLC = tested on: HOP-92 NSCLC
LOX IMVI melanoma = tested on: LOX IMVI melanoma
HOP-62 NSCLC = tested on: HOP-62 NSCLC
HS 578T breast = tested on: HS 578T breast
U251 glioblastoma = tested on: U251 glioblastoma
SF-295 CNS = tested on: SF-295 CNS
RPMI-8226 leukemia = tested on: RPMI-8226 leukemia
MOLT-4 leukemia = tested on: MOLT-4 leukemia
HT29 colon = tested on: HT29 colon
NCI-H226 lung = tested on: NCI-H226 lung
A498 renal = tested on: A498 renal
M14 melanoma = tested on: M14 melanoma
NCI-H322M lung = tested on: NCI-H322M lung
TK-10 renal = tested on: TK-10 renal
OVCAR-8 ovarian = tested on: OVCAR-8 ovarian
HCT-116 colon = tested on: HCT-116 colon
ACHN renal = tested on: ACHN renal
UACC-257 melanoma = tested on: UACC-257 melanoma
COLO 205 colon = tested on: COLO 205 colon
SR leukemia = tested on: SR leukemia
KM12 colon = tested on: KM12 colon
OVCAR-4 ovarian = tested on: OVCAR-4 ovarian
BT-549 breast = tested on: BT-549 breast
MDA-MB-435 melanoma = tested on: MDA-MB-435 melanoma
MDA-MB-231 breast = tested on: MDA-MB-231 breast
SF-268 CNS = tested on: SF-268 CNS
EKVX NSCLC = tested on: EKVX NSCLC
MDA-MB-468 breast = tested on: MDA-MB-468 breast
SN12C renal = tested on: SN12C renal
IGROV1 ovarian = tested on: IGROV1 ovarian
SNB-19 CNS = tested on: SNB-19 CNS
NCI-H522 lung = tested on: NCI-H522 lung
NCI-H460 NSCLC = tested on: NCI-H460 NSCLC
NCI/ADR-RES ovarian = tested on: NCI/ADR-RES ovarian
SK-OV-3 ovarian = tested on: SK-OV-3 ovarian
HL-60(TB) leukemia = tested on: HL-60(TB) leukemia
A549 NSCLC = tested on: A549 NSCLC
DU-145 prostate = tested on: DU-145 prostate

SMILES: Cc1ccc(Cl)cc1-c1nc(N)nc(Nc2ccc(Br)cc2)n1
- GI50 (SK-MEL-5 melanoma): 24.2 nM
- TGI (SK-MEL-5 melanoma): 58.6 nM
- GI50 (CAKI-1 renal): 68.8 nM
- TGI (CAKI-1 renal): > 100000 nM
- GI50 (T-47D breast): 23500 nM
- TGI (T-47D breast): > 100000 nM
- GI50 (PC-3 prostate): 46 nM
- TGI (PC-3 prostate): 51900 nM
- GI50 (SNB-75 CNS): 45.2 nM
- TGI (SNB-75 CNS): 24300 nM
- GI50 (MCF7 breast): 50.1 nM
- TGI (MCF7 breast): > 100000 nM
- GI50 (RXF 393 renal): 32.8 nM
- TGI (RXF 393 renal): 36600 nM
- GI50 (HCT-15 colon): 37.4 nM
- TGI (HCT-15 colon): 271 nM
- GI50 (SF-539 CNS): 36.3 nM
- TGI (SF-539 CNS): 1060 nM
- GI50 (UACC-62 melanoma): 45.3 nM
- TGI (UACC-62 melanoma): > 100000 nM
- GI50 (NCI-H23 lung): 49.9 nM
- TGI (NCI-H23 lung): > 100000 nM
- GI50 (HCC-2998 colon): 25.9 nM
- TGI (HCC-2998 colon): 170 nM
- GI50 (OVCAR-3 ovarian): 22.3 nM
- TGI (OVCAR-3 ovarian): 45.8 nM
- GI50 (HOP-92 NSCLC): 10400 nM
- TGI (HOP-92 NSCLC): > 100000 nM
- GI50 (LOX IMVI melanoma): 55.2 nM
- TGI (LOX IMVI melanoma): 569 nM
- GI50 (HOP-62 NSCLC): 36 nM
- TGI (HOP-62 NSCLC): 17600 nM
- GI50 (HS 578T breast): 21.4 nM
- TGI (HS 578T breast): 51.1 nM
- GI50 (U251 glioblastoma): 42.8 nM
- TGI (U251 glioblastoma): 2870 nM
- GI50 (SF-295 CNS): 35.5 nM
- TGI (SF-295 CNS): 12600 nM
- GI50 (RPMI-8226 leukemia): 20 nM
- TGI (RPMI-8226 leukemia): 38.3 nM
- GI50 (MOLT-4 leukemia): 21 nM
- TGI (MOLT-4 leukemia): 37.2 nM
- GI50 (HT29 colon): 34.4 nM
- TGI (HT29 colon): 15100 nM
- GI50 (NCI-H226 lung): 35.6 nM
- TGI (NCI-H226 lung): 97.8 nM
- GI50 (A498 renal): 38 nM
- TGI (A498 renal): 14800 nM
- GI50 (M14 melanoma): 28.9 nM
- TGI (M14 melanoma): 71.2 nM
- GI50 (NCI-H322M lung): 409 nM
- TGI (NCI-H322M lung): > 100000 nM
- GI50 (TK-10 renal): 70 nM
- TGI (TK-10 renal): > 100000 nM
- GI50 (OVCAR-8 ovarian): 51.8 nM
- TGI (OVCAR-8 ovarian): > 100000 nM
- GI50 (HCT-116 colon): 45.2 nM
- TGI (HCT-116 colon): > 100000 nM
- GI50 (ACHN renal): 77 nM
- TGI (ACHN renal): > 100000 nM
- GI50 (UACC-257 melanoma): 40.1 nM
- TGI (UACC-257 melanoma): > 100000 nM
- GI50 (COLO 205 colon): 34 nM
- TGI (COLO 205 colon): 93.6 nM
- GI50 (SR leukemia): 17.3 nM
- TGI (SR leukemia): 37.6 nM
- GI50 (KM12 colon): 43.4 nM
- TGI (KM12 colon): 94100 nM
- GI50 (OVCAR-4 ovarian): 57.3 nM
- TGI (OVCAR-4 ovarian): 91800 nM
- GI50 (BT-549 breast): 49.1 nM
- TGI (BT-549 breast): 374 nM
- GI50 (MDA-MB-435 melanoma): 20 nM
- TGI (MDA-MB-435 melanoma): 39.4 nM
- GI50 (MDA-MB-231 breast): 84.4 nM
- TGI (MDA-MB-231 breast): > 100000 nM
- GI50 (SF-268 CNS): 50.4 nM
- TGI (SF-268 CNS): > 100000 nM
- GI50 (EKVX NSCLC): 49.4 nM
- TGI (EKVX NSCLC): > 100000 nM
- GI50 (MDA-MB-468 breast): 174 nM
- TGI (MDA-MB-468 breast): 378 nM
- GI50 (SN12C renal): 25.4 nM
- TGI (SN12C renal): 37500 nM
- GI50 (IGROV1 ovarian): 73.3 nM
- TGI (IGROV1 ovarian): > 100000 nM
- GI50 (SNB-19 CNS): 54.1 nM
- TGI (SNB-19 CNS): 14400 nM
- GI50 (NCI-H522 lung): 23.9 nM
- TGI (NCI-H522 lung): 47.9 nM
- GI50 (NCI-H460 NSCLC): 25.2 nM
- TGI (NCI-H460 NSCLC): 63.3 nM
- GI50 (NCI/ADR-RES ovarian): 20.9 nM
- TGI (NCI/ADR-RES ovarian): 51.3 nM
- GI50 (SK-OV-3 ovarian): 38.6 nM
- TGI (SK-OV-3 ovarian): 57000 nM
- GI50 (HL-60(TB) leukemia): 20.5 nM
- TGI (HL-60(TB) leukemia): 35.2 nM
- GI50 (A549 NSCLC): 88 nM
- TGI (A549 NSCLC): > 100000 nM
- GI50 (DU-145 prostate): 39.5 nM
- TGI (DU-145 prostate): 269 nM
